Assay results reported in ChEMBL document CHEMBL3301361, “Experimental in vitro DMPK and physicochemical data on a set of publicly disclosed compounds”.

Test: physchem
Conditions: octan-1-ol/water, pH 7.4

Point of comparison: `CN(C)C(=O)N[C@H]1CC[C@H](CN2[C@@H]3CC[C@H]2C[C@@H](Oc2cccc(C(N)=O)c2)C3)CC1`, logD -0.07. Against it:
- CN1CC=C(c2cccc(O)c2)CC1 — higher, 0.53
- O=C(Nc1cccc([C@@H](c2ccc(C(=O)N3CCC3)cc2)N2CCN(Cc3ccc(F)cc3)CC2)c1)C1CC1 — higher, 3.58
- CC(C)(C)OC(=O)c1ncn2c1[C@@H]1CCCN1C(=O)c1c(Br)cccc1-2 [BRETAZENIL] — higher, 2.48
- O=C1CC(c2ccc(O)cc2)Oc2cc(O)cc(O)c21 (centres undefined) — higher, 2.6
- Cc1nc(-c2ccc(CN3CCC(n4c(=O)[nH]c5ccccc54)CC3)cc2)c(-c2ccccc2)[nH]c1=O — higher, 3.8
- O=C(NCC1CCOCC1)c1nc(OS(=O)(=O)CCC(F)(F)F)ccc1NC(=O)c1ccc(Cn2ccnn2)c2ccccc12 — higher, 4.2
- CCn1cc(C(=O)O)c(=O)c2ccc(C)nc21 [NALIDIXIC ACID] — within 0.2 log units, -0.1
- Oc1ccnc2ccccc12 — higher, 0.8
- c1ccc(CCNCc2ccccc2)cc1 — higher, 1.65
- CCN(CC)CCN1C(=O)CN=C(c2ccccc2F)c2cc(Cl)ccc21 [FLURAZEPAM] — higher, 2.38
- CN(C(=O)Cc1ccc(Cl)c(Cl)c1)C(CN1CCCC1)c1ccccc1 (centres undefined) — higher, 3.38
- CCN(C)C(=O)c1ccc(C(=C2CCN(Cc3ccc(F)cc3)CC2)c2ccccc2NC(C)=O)cc1 — higher, 2.79

Same assay, conditions: octan-1-ol/water, pH 7.4, LogD7.4

Point of comparison: `CCOc1ccccc1-c1ccc2c(c1)C(=O)C(=O)c1ccccc1-2`, logD 2.67. Against it:
- Nc1c2c(nc3c(-c4ncccn4)cccc13)CN(C1CCC1)C2=O — lower, 1.85
- CC(C)c1ccccc1Nc1nnc(SCc2cccs2)[nH]1 — higher, 4.21
- CCCN[C@H]1CCc2nc(N)sc2C1 [PRAMIPEXOLE] — higher, 3.15
- Cc1sc2ncnc(SCC(=O)N3CCN(C(=O)c4ccco4)CC3)c2c1C — within 0.2 log units, 2.7
- CC(C)Cn1c(=O)n(C)c(=O)c2c(-c3cncn3C)n(Cc3cccc4ccccc34)nc21 — higher, 4.1
- O=C([C@@H](O)CO)N1CC=C(c2ccc(N3C[C@H](COc4ccon4)OC3=O)cc2F)CC1 — lower, 1.09
- Cc1cc(Nc2ccccc2)n(CCC#N)n1 — lower, 2.3
- CC(C)C(NC(=O)Cn1c(-c2ccc(F)cc2)ncc(NC(=O)OCc2ccncc2)c1=O)C(=O)C(F)(F)F (centres undefined) — lower, 2.22
- CCC(c1nc2ccsc2c(=O)n1Cc1ccc(C)cc1)N(CCCN)C(=O)c1ccc(C)cc1 (centres undefined) — lower, 1.69
- Nc1n[nH]c(Nc2ccccc2)n1 — lower, 1.06
- CN[C@@H](C)C(=O)N[C@H](C(=O)N[C@H]1CCCN(CCc2ccc(OC)cc2)C1)C(C)(C)C — lower, 1.45
- Nc1nc(N)nc(-c2cccc(C(F)(F)F)c2)n1 — lower, 2.4
- O=C(N[C@@H](Cc1ccc(N2CCN(c3ccccc3)CC2)cc1)C(=O)O)c1c(Cl)cccc1Cl — lower, 0.08
- CC(C)Cn1c(=O)n(C)c(=O)c2c(C(=O)N3CC[C@@H](O)C3)c(Cc3ccnc4ccccc34)sc21 — lower, 1.65
- Cc1nc(-c2ccc(C)c(NC(=O)c3ccc(OCc4ccccn4)cc3)c2)c[nH]1 — higher, 2.97
- CC(=O)N[C@@H]1CC2(CCN(Cc3ccc4[nH]c5ccccc5c4c3)CC2)c2ccccc21 — higher, 2.96
- O=[N+]([O-])c1ccc2c(c1)N(c1cccc[n+]1[O-])CC(C(F)F)(C(F)F)O2 — higher, 3.2
- CNC(=O)c1ccc(Nc2nccc(-c3cnc(C)n3C(C)C)n2)cc1F — higher, 2.95
- CC[C@H](NC(=O)c1c([S+]([O-])CC)c(-c2ccccc2)nc2ccccc12)c1ccccc1 (some centres undefined) — higher, 3.45
- CN(C)CCN(Cc1ccccc1)c1ccccn1 [TRIPELENNAMINE] — lower, 1.28
- CS(=O)(=O)NCCC(NC(=O)C1(N)CCN(c2ncnc3[nH]ccc23)CC1)c1ccc(Cl)cc1 (centres undefined) — lower, 2.2
- O=S(=O)(NCC(c1ccccc1)N1CCCCCC1)c1ccc(F)c(F)c1 (centres undefined) — within 0.2 log units, 2.84
- CN(C)CC(O)COc1ccc(Nc2nccc(Nc3ccccc3)n2)cc1 (centres undefined) — lower, 1.58
- COc1cc(N2CCN(C)CC2)c2[nH]c(C(=O)Nc3ccc(N4CCOCC4)cc3)cc(=O)c2c1 — within 0.2 log units, 2.7
- Nc1nc(SCc2ccccc2)nc2c1ncn2[C@@H]1O[C@H](CO)[C@@H](O)[C@H]1O — lower, 1.24
- CC(O)(C(=O)Nc1ccc(S(=O)(=O)c2ccncc2)cc1)C(F)(F)F (centres undefined) — lower, 2.15
- Cc1cc(N)c2cc(NC(=O)CCC(=O)Nc3ccc4nc(C)cc(N)c4c3)ccc2n1 — lower, 1.39
- COc1cc2c(N3CCN(C(=O)Nc4ccc(OC(C)C)cc4)CC3)ncnc2cc1OCCCN1CCCCC1 [TANDUTINIB] — within 0.2 log units, 2.6
- O=C1Nc2ccccc2C1(O)c1ccccc1 (centres undefined) — lower, 1.71
- COc1cc2nnc(C(N)=O)c(Nc3ccc(C)cc3F)c2cc1N1CCN(C)CC1 — lower, 2.36
- O=c1oc2ccccc2cc1-c1ccc(O)cc1 — higher, 3
- O=C1C2=Nc3ccccc3CN2c2ccccc21 — within 0.2 log units, 2.71
- O=S(=O)(c1ccccc1)C1(c2cc(N3CCOCC3)nc(-c3cccc4[nH]ccc34)n2)CC1 — higher, 3.4
- COc1ccc(-c2ccc3c(N4CCOC[C@@H]4C)nc(N4CCOC[C@@H]4C)nc3n2)cc1C(N)=O — within 0.2 log units, 2.82
- COc1cc2ncnc(Nc3cc(NC(=O)c4ccnc(N5CCOCC5)c4)ccc3C)c2cc1OCCN1CCCC1 — within 0.2 log units, 2.7
- COc1cc2c(Nc3ccc(Cl)cc3F)ncnc2cc1OCC1CCNCC1 — lower, 1.1
- COc1ccc(-c2coc3cc(O)cc(O)c3c2=O)cc1 [BIOCHANIN] — higher, 3.5
- FC(F)(F)c1nnc2ccc(N3CCCCC3)nn12 — higher, 3
- NC(=O)c1sc2nccc(Nc3ccccc3)c2c1N — higher, 2.91
- CCCCCSc1nc2nc(N)sc2c(=O)[nH]1 — within 0.2 log units, 2.86
- CNC(=O)C1(N2CCCNC2=O)CCN(CC[C@H](CN(C)C(=O)c2c(OC)c(C#N)cc3ccccc23)c2ccc(Cl)c(Cl)c2)CC1 — lower, 2.2
- CC(=O)NCC(NC(=O)C1(N)CCN(c2ncnc3[nH]ccc23)CC1)c1ccc(Cl)cc1 (centres undefined) — lower, 2.4
- COc1ccc(-c2cc(=O)c3ccccc3[nH]2)cc1 — within 0.2 log units, 2.71
- Cn1cc(C#N)cc1-c1c2c(=O)n(C)c(=O)n(CC3CC3)c2nn1Cc1ccnc2ccc(Cl)cc12 — higher, 3.67
- O=C(NNc1cccc(Cl)c1)c1cccnc1Cl — lower, 1.87
- COc1ccc(C(=O)Nc2cccc(NC(=O)c3ccc(OC)c(OC)c3)n2)cc1OC — higher, 3.5
- CC(C)C[C@H](CO)Nc1nc(SCc2ccccc2F)nc2nc(N)sc12 — higher, 4.5
- Cc1cc(Cl)ccc1OC1CCN(C[C@H](O)CNC(=O)c2c[nH]c(=O)c3c(F)cccc23)CC1 — higher, 3
- NS(=O)(=O)c1cc(Cl)c(Cl)c(S(N)(=O)=O)c1 [DICHLORPHENAMIDE] — lower, 0.92
- CCn1c(=O)c2c(-c3cc(C#N)cn3C)n(Cc3ccnc4ccc(Cl)cc34)nc2n(CC2CC2)c1=O — higher, 4.13
- Cn1ncnc1-c1c2c(=O)n(C)c(=O)n(CC3CC3)c2nn1Cc1ccnc2ccc(Cl)cc12 — higher, 3.8
- Cc1ccc(OCC(=O)O)c(-n2nc3ccccc3n2)c1 — lower, -0.84
- O=c1cc(-c2ccccc2)oc2cc(O)cc(O)c12 [CHRYSIN] — higher, 3.83
- COc1cc(C(=O)Nc2ccc(Cl)c(-c3nc4ccccc4[nH]3)c2)cc(OC)c1OC — higher, 3.83
- COc1ccc(Cn2c(=O)[nH]c3c(=O)n(CC(=O)NC(C(=O)C(F)(F)F)C(C)C)c(-c4ccccc4)cc3c2=O)cc1 (centres undefined) — higher, 2.93
- CCN(CC)CCOc1ccc(/C(=C(/Cl)c2ccccc2)c2ccccc2)cc1 [ENCLOMIPHENE] — higher, 4.09
- COc1ccccc1C(=O)NCC12CC3CC(CC(C3)C1)C2 — higher, 4.43
- Oc1ccc(-c2ccc3cc(O)ccc3c2)cc1 — higher, 4
- COc1cc(F)ccc1-c1cncc(CNC[C@@H]2CCCO2)n1 — lower, 2
- COc1cccc(Nc2nc(NCC3CCCO3)c3ccccc3n2)c1 (centres undefined) — higher, 3.9
